Test results: US20150313837A1, “POLYMERIC HYDROGEL COMPOSITIONS WHICH RELEASE ACTIVE AGENTS IN RESPONSE TO ELECTRICAL STIMULUS” (University of Witwatersrand, Johannesburg, priority 2010, published 2015)

Assay: Drug leakage from hydrogel in PBS in absence of electric current
Assay type: physicochemical
Conditions: comparison of drugs loaded in the hydrogel
Protocol: The indomethacin-loaded hydrogels were left in […] PBS for 12 hours, and a 1 mL sample was then taken in order to assess for any drug release prior to exposure to an electric current. […] Further tests for drug release of the indomethacin-loaded hydrogels in the presence of an electric current were performed.
The system was therefore left in 50 mL of PBS for 12 hours, and 1 mL sample was taken and assessed for any presence of drugs. […] The hydrogels were then then assessed for their drug release capacity. They were once again immersed in PBS and an electric current was passed through them. This time, 35 samples were extracted and assessed by UV/visible spectroscopy for the amount of drugs which were released.
The amount of drug released ranged from 0.081 mg to 0.160 mg. The hydrogel was then assessed one last time for any leakage of drugs. The hydrogel was immersed in 50 mL of PBS for 12 hours.
One possible explanation for this phenomenon is the larger molecular size of indomethacin as compared to diclofenac sodium and ibuprofen. This larger molecular size means that indomethacin is better entrapped inside the three dimensional network of the hydrogel system.

Compound | leakage of loaded drug from hydrogel when no electric current is applied
O=C(O)Cc1ccccc1Nc1c(Cl)cccc1Cl [Diclofenac sodium] | drug leakage may still have occurred on the surface
CC(C)Cc1ccc(C(C)C(=O)O)cc1 (stereo not drawn) [ibuprofen] | drug leakage may still have occurred on the surface
COc1ccc2c(c1)c(CC(=O)O)c(C)n2C(=O)c1ccc(Cl)cc1 [indomethacin] | no leakage occurred
